Data published in paper PMC12472391, “Borylated Five-Membered Ring Iminosugars: Synthesis, Spectroscopic Analysis, and Biological Evaluation for Glycosidase Inhibition and Anticancer Properties for Application in Boron Neutron Capture Therapy (BNCT)—Part 1” (Pharmaceuticals, 2025).

Tests used:
[1] = system: A2780 ovarian carcinoma cells; experiment: Cancer screening, MTT growth inhibition; assay type: cell-based; settings: 72-h exposure; for inhibition at 25 µM / GI50: Homo sapiens; for inhibition at 25 µM: A2780, 25 µM, read-out: A2780 Ovarian Carcinoma, Percentage (%) Cell Growth Inhibition in response to 25 µM of Drug; for GI50: A2780, dose response, read-out: A2780 Ovarian Carcinoma, GI50 = Concentration (µM) that inhibits cell growth by 50%
Experimental: (§1) Two assays were run: the dose screen to ascertain cell growth inhibition in response to 25 µM of drug (on a blue background) and the dose response (GI50) (on a green background). For a discussion of BNCT as a radiotherapeutic modality, a rationalisation is provided here.
(§2) All test agents were prepared as stock solutions (20 mM) in dimethyl sulfoxide (DMSO) and stored at −20 °C. Cell lines used in the study included HT29, (colorectal carcinoma); U87, SJ-G2, (glioblastoma); MCF-7, (breast carcinoma); A2780 (ovarian carcinoma); H460 (lung carcinoma); A431 (skin carcinoma); Du145 (prostate carcinoma); BE2-C (neuroblastoma) and MiaPaCa-2 (pancreatic carcinoma); together with the one non-tumour derived normal breast cell line (MCF10A). All cell lines were incubated in a humidified atmosphere 5% CO2 at 37 °C. The cancer cell lines were maintained in Dulbecco’s modified Eagle’s medium (DMEM; Sigma, Australia) supplemented with foetal bovine serum (10%), sodium pyruvate (10 mM), penicillin (100 IUmL^−1), streptomycin (100 µg mL^−1), and L-glutamine (2 mM).
(§3) Growth inhibition was determined by plating cells in duplicate in medium (100 µL) at a density of 2500–4000 cells per well in 96-well plates. On day 0 (24 h after plating), when the cells are in logarithmic growth, medium (100 µL) with or without the test agent was added to each well. After a 72-h drug exposure, growth inhibitory effects were evaluated using the MTT (3-(4,5-dimethyltiazol-2-yl)-2,5-diphenyltetrazolium bromide) assay and absorbance read at 540 nm. The percentage growth inhibition was calculated at a fixed concentration of 25 µM, based on the difference between the optical density values on day 0 and those at the end of drug exposure. Each data point is the mean ± the standard error of the mean (SEM) calculated from three replicates, which were performed on separate occasions and separate cell line passages.

[2] = system: A431 skin carcinoma cells; experiment: Cancer screening, MTT growth inhibition; assay type: cell-based; settings: 72-h exposure; for inhibition at 25 µM / GI50: Homo sapiens; for inhibition at 25 µM: A-431, 25 µM, read-out: A431 Skin Carcinoma, Percentage (%) Cell Growth Inhibition in response to 25 µM of Drug; for GI50: A-431, dose response, read-out: A431 Skin Carcinoma, GI50 = Concentration (µM) that inhibits cell growth by 50%
Experimental: as §1, §2, §3

[3] = system: BE2-C neuroblastoma cells; experiment: Cancer screening, MTT growth inhibition; assay type: cell-based; settings: 72-h exposure; for inhibition at 25 µM: Homo sapiens, BE(2)-C, read-out: BE2-C Neuroblastoma, Percentage (%) Cell Growth Inhibition in response to 25 µM of Drug
Experimental: as §1, §2, §3

[4] = system: Du145 prostate carcinoma cells; experiment: Cancer screening, MTT growth inhibition; assay type: cell-based; settings: for inhibition at 25 µM: Homo sapiens, DU-145, 72-h exposure, read-out: Du145 Prostate Carcinoma, Percentage (%) Cell Growth Inhibition in response to 25 µM of Drug; for Du145 Prostate Carcinoma, Percentage (%) Cell Growth Inhibition in response to 25 µM of Drug: 72-h exposure
Experimental: as §1, §2, §3

[5] = system: H460 lung carcinoma cells; experiment: Cancer screening, MTT growth inhibition; assay type: cell-based; settings: 72-h exposure; for inhibition at 25 µM / GI50: Homo sapiens; for inhibition at 25 µM: NCI-H460, 25 µM, read-out: H460 Lung Carcinoma, Percentage (%) Cell Growth Inhibition in response to 25 µM of Drug; for GI50: NCI-H460, dose response, read-out: H460 Lung Carcinoma, GI50 = Concentration (µM) that inhibits cell growth by 50%
Experimental: as §1, §2, §3

[6] = system: HT29 colon carcinoma cells; experiment: Cancer screening, MTT growth inhibition; assay type: cell-based; settings: 72-h exposure; for inhibition at 25 µM / GI50: Homo sapiens; for inhibition at 25 µM: HT-29, 25 µM, read-out: HT29 Colon Carcinoma, Percentage (%) Cell Growth Inhibition in response to 25 µM of Drug; for GI50: HT-29, dose response, read-out: HT29 Colon Carcinoma, GI50 = Concentration (µM) that inhibits cell growth by 50%
Experimental: as §1, §2, §3

[7] = system: MCF-7 breast carcinoma cells; experiment: Cancer screening, MTT growth inhibition; assay type: cell-based; settings: for inhibition at 25 µM: Homo sapiens, MCF7, 72-h exposure, read-out: MCF-7 Breast Carcinoma, Percentage (%) Cell Growth Inhibition in response to 25 µM of Drug; for MCF-7 Breast Carcinoma, Percentage (%) Cell Growth Inhibition in response to 25 µM of Drug: 72-h exposure
Experimental: as §1, §2, §3

[8] = system: MIA-Pa-Ca2 pancreatic carcinoma cells; experiment: Cancer screening, MTT growth inhibition; assay type: cell-based; settings: 72-h exposure; for inhibition at 25 µM / GI50: Homo sapiens; for inhibition at 25 µM: MIA PaCa-2, 25 µM, read-out: MIA-Pa-Ca2 Pancreatic Carcinoma, Percentage (%) Cell Growth Inhibition in response to 25 µM of Drug; for GI50: MIA PaCa-2, dose response, read-out: MIA-Pa-Ca2 Pancreatic Carcinoma, GI50 = Concentration (µM) that inhibits cell growth by 50%
Experimental: as §1, §2, §3

SJ-G2 glioblastoma cells = experiment: Cancer screening, MTT growth inhibition; assay type: cell-based; settings: for inhibition at 25 µM: SJ-G2, 72-h exposure, read-out: SJ-G2 Glioblastoma, Percentage (%) Cell Growth Inhibition in response to 25 µM of Drug; for SJ-G2 Glioblastoma, Percentage (%) Cell Growth Inhibition in response to 25 µM of Drug: 72-h exposure
Experimental: as §1, §2, §3

U87 glioblastoma cells = experiment: Cancer screening, MTT growth inhibition; assay type: cell-based; settings: 72-h exposure; for inhibition at 25 µM: read-out: U87 Glioblastoma, Percentage (%) Cell Growth Inhibition in response to 25 µM of Drug
Experimental: as §1, §2, §3

[9] = system: MCF10A normal breast cells; experiment: Cancer screening, MTT growth inhibition; assay type: cell-based; settings: 72-h exposure; for inhibition at 25 µM / GI50: Homo sapiens, MCF-10A; for inhibition at 25 µM: read-out: MCF10A Breast (Normal), Percentage (%) Cell Growth Inhibition in response to 25 µM of Drug; for GI50: dose response, read-out: MCF10A Breast (Normal), GI50 = Concentration (µM) that inhibits cell growth by 50%
Experimental: as §1, §2
The non-cancer MCF10A cell line was maintained in DMEM/F12 (1:1) cell culture media, 5% heat inactivated horse serum, supplemented with penicillin (50 IUmL^−1), streptomycin (50 µg mL^−1), HEPES (20 mM), L-glutamine (2 mM), epidermal growth factor (20 ng mL^−1), hydrocortisone (500 ng mL^−1), cholera toxin (100 ng mL^−1), and insulin (10 mg mL^−1).
as §3

α-D-glucosidase (rice) = α-D-glucosidase (rice) (Oryza sativa subsp. japonica, UniProt Q653V7); experiment: Glycosidase inhibition, Table 6 (Laboratory 1); assay type: biochemical
Chain of α-D-glucosidase (rice) (Q653V7 34-885): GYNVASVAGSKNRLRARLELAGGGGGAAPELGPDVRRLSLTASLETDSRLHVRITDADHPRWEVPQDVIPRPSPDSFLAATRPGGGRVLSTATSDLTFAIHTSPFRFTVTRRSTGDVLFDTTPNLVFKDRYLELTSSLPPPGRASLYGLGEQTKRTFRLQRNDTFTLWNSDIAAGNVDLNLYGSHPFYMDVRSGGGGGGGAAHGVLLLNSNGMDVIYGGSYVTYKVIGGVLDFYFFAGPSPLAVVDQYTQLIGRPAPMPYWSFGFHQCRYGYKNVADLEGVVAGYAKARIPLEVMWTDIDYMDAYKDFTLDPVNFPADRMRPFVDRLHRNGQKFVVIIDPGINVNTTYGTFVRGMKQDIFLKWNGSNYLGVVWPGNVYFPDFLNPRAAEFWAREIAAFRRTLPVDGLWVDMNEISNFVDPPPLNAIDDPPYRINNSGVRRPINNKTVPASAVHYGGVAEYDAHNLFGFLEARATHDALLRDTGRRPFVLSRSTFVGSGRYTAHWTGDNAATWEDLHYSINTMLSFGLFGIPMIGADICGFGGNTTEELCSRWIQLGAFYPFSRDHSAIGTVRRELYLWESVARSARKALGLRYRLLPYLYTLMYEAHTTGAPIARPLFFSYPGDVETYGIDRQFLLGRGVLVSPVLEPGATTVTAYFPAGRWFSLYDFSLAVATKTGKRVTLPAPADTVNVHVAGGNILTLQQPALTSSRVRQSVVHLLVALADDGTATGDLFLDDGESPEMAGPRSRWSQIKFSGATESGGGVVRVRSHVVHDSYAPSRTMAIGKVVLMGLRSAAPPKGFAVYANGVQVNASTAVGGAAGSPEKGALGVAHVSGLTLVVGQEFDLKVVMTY

Compound | inhibition at 25 µM [1] [%] | inhibition at 25 µM [2] [%] | inhibition at 25 µM [3] [%] | inhibition at 25 µM [4] [%] | inhibition at 25 µM [5] [%] | inhibition at 25 µM [6] [%] | inhibition at 25 µM [7] [%] | inhibition at 25 µM [8] [%] | inhibition at 25 µM (SJ-G2 glioblastoma cells) [%] | inhibition at 25 µM (U87 glioblastoma cells) [%] | inhibition at 25 µM [9] [%] | inhibition at 100 µM (α-D-glucosidase (rice)) [%] | inhibition at 1000 µM (α-D-glucosidase (rice)) [%] | GI50 [1] [µM] | GI50 [2] [µM] | GI50 [5] [µM] | GI50 [6] [µM] | GI50 [8] [µM] | GI50 [9] [µM] | also measured
N[C@@H](Cc1ccc(B(O)O)cc1)C(=O)O [BPA, 4-borono-L-phenylalanine, reference compound] | 4 | 4 | 13 | 19 | 7 | 14 | < 0 | 3 | 5 | < 0 | 4 |  |  |  |  |  |  |  |  | 
CC1(C)O[C@H]2O[C@H]3[C@@H]([C@H]2O1)N(Cc1ccccc1)C[C@H]3O [Compound 3, N-Benzyl-3,6-dideoxy-3,6-imino-1,2-O-isopropylidene-α-D-gulofuranose] | 11 | 7 | 10 | < 0 | 9 | 10 | 7 | 7 | 10 | 5 | 9 | 0 |  |  |  |  |  |  |  | 
OC1O[C@@H]2[C@H]([C@H]1O)N(Cc1ccccc1)C[C@H]2O (stereo partly drawn) [Compound 4, N-Benzyl-3,6-dideoxy-3,6-imino-D-gulofuranose] | 15 | 11 | 12 | 0 | 8 | 11 | 9 | 8 | 12 | 8 | 14 |  | 1.3 |  |  |  |  |  |  | 
OC[C@H](O)[C@@H]1[C@H](O)[C@H](O)CN1Cc1ccccc1 [Compound 5, N-Benzyl-1,4-dideoxy-1,4-imino-L-gulitol] | 13 ± 6 | 2 |  |  | 0 | 2 ± 3 |  | 6 ± 1 |  |  | 3 | 0 |  | > 50 | > 50 | > 50 | > 50 | > 50 | > 50 | 
N[C@@H](Cc1ccc(B(O)O)cc1)C(=O)O [^10B-BPA, reference compound] |  |  |  |  |  |  |  |  |  |  |  |  |  |  |  |  |  |  |  | α-D-Glucosidase Rice, inhibition % at 100 μM (α-D-glucosidase (rice); 100 μM): ^c NI ^d (0%); A2780 Ovarian Carcinoma, Percentage (%) Cell Growth Inhibition in response to 25 µM of Drug [1]: * 8 ± 4%; A431 Skin Carcinoma, Percentage (%) Cell Growth Inhibition in response to 25 µM of Drug [2]: * 4 ± 4%; BE2-C Neuroblastoma, Percentage (%) Cell Growth Inhibition in response to 25 µM of Drug [3]: * 10 ± 6%; Du145 Prostate Carcinoma, Percentage (%) Cell Growth Inhibition in response to 25 µM of Drug [4]: * 15 ± 9%; H460 Lung Carcinoma, Percentage (%) Cell Growth Inhibition in response to 25 µM of Drug [5]: * 8 ± 5%; HT29 Colon Carcinoma, Percentage (%) Cell Growth Inhibition in response to 25 µM of Drug [6]: * 15 ± 4%; MCF-7 Breast Carcinoma, Percentage (%) Cell Growth Inhibition in response to 25 µM of Drug [7]: * 1 ± 3%; MIA-Pa-Ca2 Pancreatic Carcinoma, Percentage (%) Cell Growth Inhibition in response to 25 µM of Drug [8]: * 11 ± 3%; SJ-G2 Glioblastoma, Percentage (%) Cell Growth Inhibition in response to 25 µM of Drug (SJ-G2 glioblastoma cells): * 5 ± 10%; U87 Glioblastoma, Percentage (%) Cell Growth Inhibition in response to 25 µM of Drug (U87 glioblastoma cells): * <0%; MCF10A Breast (Normal), Percentage (%) Cell Growth Inhibition in response to 25 µM of Drug [9]: * <0%
CC1(C)O[C@H]2O[C@H]3[C@@H]([C@H]2O1)N(Cc1ccc(B2OC(C)(C)C(C)(C)O2)cc1)C[C@H]3O [para 6, N-(4-Methylphenylboronic acid pinacol ester)-3,6-dideoxy-3,6-imino-1,2-O-isopropylidene-α-D-gulofuranose] | 14 | 6 | 5 | < 0 | 10 | 8 | 3 | 9 | 9 | 7 | 14 | 0 |  |  |  |  |  |  |  | 
OB(O)c1ccc(CN2CC(O)C3OC(O)C(O)C32)cc1 [para 7, N-(4-Methylphenylboronic acid)-3,6-dideoxy-3,6-imino-D-gulofuranose] | 27 ± 2 | 9 ± 5 |  |  | 9 ± 6 | 15 ± 3 |  | 14 |  |  | 4 ± 2 |  | 0 | > 50 | > 50 | > 50 | > 50 | > 50 | > 50 | 
OC[C@H](O)[C@@H]1[C@H](O)[C@H](O)CN1Cc1ccc(B(O)O)cc1 [para 8, N-(4-Methylphenylboronic acid)-1,4-dideoxy-1,4-imino-L-gulitol] | 14 ± 7 | 0 |  |  | 1 ± 2 | 5 ± 2 |  | 11 ± 1 |  |  | 1 |  | 8.2 | > 50 | > 50 | > 50 | > 50 | > 50 | > 50 | 
borocaptate sodium [BSH, reference compound] |  |  |  |  |  |  |  |  |  |  |  |  |  |  |  |  |  |  |  | α-D-Glucosidase Rice, inhibition % at 1000 μM (α-D-glucosidase (rice); 1000 μM): ^a NI ^b (0%); A2780 Ovarian Carcinoma, Percentage (%) Cell Growth Inhibition in response to 25 µM of Drug [1]: * 2 ± 5%; A431 Skin Carcinoma, Percentage (%) Cell Growth Inhibition in response to 25 µM of Drug [2]: * <0%; BE2-C Neuroblastoma, Percentage (%) Cell Growth Inhibition in response to 25 µM of Drug [3]: * 10 ± 6%; Du145 Prostate Carcinoma, Percentage (%) Cell Growth Inhibition in response to 25 µM of Drug [4]: * 0 ± 8%; H460 Lung Carcinoma, Percentage (%) Cell Growth Inhibition in response to 25 µM of Drug [5]: * 8 ± 2%; HT29 Colon Carcinoma, Percentage (%) Cell Growth Inhibition in response to 25 µM of Drug [6]: * 3 ± 2%; MCF-7 Breast Carcinoma, Percentage (%) Cell Growth Inhibition in response to 25 µM of Drug [7]: * 15 ± 3%; MIA-Pa-Ca2 Pancreatic Carcinoma, Percentage (%) Cell Growth Inhibition in response to 25 µM of Drug [8]: * 2 ± 6%; SJ-G2 Glioblastoma, Percentage (%) Cell Growth Inhibition in response to 25 µM of Drug (SJ-G2 glioblastoma cells): * 3 ± 8%; U87 Glioblastoma, Percentage (%) Cell Growth Inhibition in response to 25 µM of Drug (U87 glioblastoma cells): * <0%; MCF10A Breast (Normal), Percentage (%) Cell Growth Inhibition in response to 25 µM of Drug [9]: * 8 ± 3%
